Patent US20250270159A1, “1-(CYCLOBUTANEMETHYLIDENE)-2, 4, 5-TRIMETHOXYBENZENE COMPOUND AND PREPARATION METHOD AND USE THEREOF” (CHENGDU XINRUI TAIKANG TECHNOLOGY CO., LTD., priority 2023, published 2025)

Experiments:
[1] = test system: hemorrhagic stroke induced by caudate nucleus collagenase VII injection in rats; test: Acute phase of hemorrhagic stroke induced by caudate nucleus collagenase VII injection, short-term neurological deficit score; assay type: in vivo; details: for mNSS score / Garcia score: 24 h after hemorrhagic stroke modeling; for mNSS score: scale 0-18, higher worse; for Garcia score: scale 3-18, lower worse
Method: after 2 h of hemorrhagic stroke, Zea Longa Score was used to determine whether the modeling was successful, and rats with successful modeling were taken and randomly grouped to be administered.
The rats were randomly divided into a sham operation group (Sham group, given a blank emulsion with a volume equal to that of the high-dose CTMB group), a model group (Vehicle group, given a blank emulsion with a volume equal to that of the high-dose CTMB group), a low-dose CTMB group (CTMB-L group, 10 mg/kg), a high-dose CTMB group (CTMB-H group, 20 mg/kg), and an edaravone dexborneol injection concentrated solution group (EDB group, commercially available, 3 mg/kg). Each group included 10-13 rats, which were administered by intraperitoneal injection. It should be noted that in the experiment, the mode of administration for rats was intraperitoneal injection, and a ratio of the effective dose of CTMB, the active ingredient in the emulsion injection, to the unit mass of the human body was within a range of 0.2 mg-4.0 mg/kg, which referred to the ratio of the effective dose of CTMB, the active ingredient in the emulsion injection, to the unit mass of the human body during intravenous infusion, which was extrapolated from effective dose of the rats. Considering the different bioavailability, peak concentration, and peak time of the drug due to different species and different modes of administration, the ration of the effective dose of the active ingredient CTMB in the emulsion injection to unit mass of human body was finally determined to be 0.2 mg-4.0 mg/kg through conversion.
The rats were fasted and dehydrated for 8 h before the procedure, and anesthesia was induced using 4% isoflurane, and 2% isoflurane was given to maintain anesthesia, and the rats were maintained at a temperature of about 37° C. The rats were fixed at the prone position on the stereotaxic apparatus, the head was prepared for skinning, and a longitudinal incision was made in the median sagittal shape of the head to incise the skin and subcutaneous tissues, exposing the anterior chimney and coronal suture. The stereotaxic apparatus was used to locate the right caudate nucleus of the rat with the fontanel as the origin and the right paracentral opening of the midline of 3.0 mm, marked and then holes were punched with the cranial bone drill, the dura was exposed, and the hemorrhage was stopped adequately. The micro-syringe was pre-mounted on the stereotaxic apparatus, and the needle was vertically injected 5.5 mm along the cranial borehole (i.e., the caudate nucleus site). Collagenase VII (1 μL) at a concentration of 0.5 U/μL was injected slowly and uniformly into the brain for 5 min, the needle was stopped for 8 min, and the syringe was slowly pushed out. The cranial defect was closed using sterile bone wax and the scalp incision was sutured. After disinfecting the treatment with iodophor, the rats were returned to the cage. The sham operation group (Sham group) remained unchanged except for the insertion of a needle for saline injection. After awaking from anesthesia, the rats were fed normally. […]
The neural function of the rats was comprehensively evaluated after 24 h of modeling using the modified mNSS score and Garcia score, and mNSS scoring criteria was shown in Table 3 and Garcia scoring criteria was shown in Table 4. […]

[2] = test system: reduced glutathione (GSH); test: GSH content in striatum of PD mice; assay type: in vivo, C57 mice; details: Group D, CTMB 20 mg/kg ip, after 4 weeks, injured side
Method: (§1) The mice were randomly divided into a sham operation group (group S, given a blank emulsion with a volume equal to that of the administered group), a model group (group M, given a blank emulsion with a volume equal to that of the administered group), a CTMB group (20 mg/kg, group D), and a levodopa group (levodopa: benserazide hydrochloride=4:1, 12 mg/kg, group L), each group included 10-12 mice, and all of them were administered intraperitoneally.
Malondialdehyde (MDA) is a commonly used indicator of membrane lipid peroxidation, reduced glutathione (GSH) is one of the most commonly used non-enzymatic indicators of antioxidant substances, and superoxide dismutase (SOD) is a common indicator of antioxidant enzymes. After completing the evaluation of motor function after 4 weeks of drug administration, the mice were deeply anesthetized and perfused with 20 mL of saline via the heart. The brain was rapidly severed to isolate the striatal region on the injured side (right side), weighed, and placed into a 1.5 mL EP tube, and homogenized at low temperature by adding phosphate-buffered saline (PBS) at the ratio of a weight of animal tissues (g) to a volume of homogenization medium (mL) of 1:9. […]

[3] = test system: neurons in the substantia nigra region of the midbrain of PD mice; test: Niehl's staining, number of neuronal Niehl's bodies in substantia nigra of PD mice; assay type: in vivo, C57 mice; details: Group D, CTMB 20 mg/kg ip, after 4 weeks of administration
Method: as §1
After completing the evaluation of motor function after 4 weeks of drug administration, the mice were deeply anesthetized, perfused with 20 mL of saline and 20 mL of 4% paraformaldehyde via the heart, and the brains were rapidly severed and extracted from the head, which were then preserved and fixed in 4% paraformaldehyde for 72 h after removal, and then embedded with paraffin to prepare the slices with a thickness of 4 μm for subsequent pathological and histological studies.
Niehl's staining was used to identify Niehl's bodies in neuronal cells.

COc1cc(OC)c(OC)cc1C=C1CCC1 [CTMB, 1-(cyclobutylidenemethyl)-2,4,5-trimethoxybenzene]
toxic side effects associated with administration ([1]; 10 and 20 mg/kg ip, hemorrhagic stroke rats): No toxic side effects
mNSS score ([1]; CTMB-H 20 mg/kg ip): 5.97 ± 1.68^####, *
Garcia score ([1]; CTMB-H 20 mg/kg ip): 10.45 ± 2.49^####, *
mNSS score ([1]; CTMB-L 10 mg/kg ip): 4.54 ± 1.81^###, ****
Garcia score ([1]; CTMB-L 10 mg/kg ip): 12.45 ± 1.89^####, ****
GSH [2]: 46.38 ± 6.94 μmol/g protein
Number of Niehl's bodies [3]: 55.5 ± 4.0
